Measured values: article PMC6437697 (Journal of Medicinal Chemistry, 2019)

How the values were obtained:
Experiment in all cases: KINOMEscan
Assay type in all cases: binding
Details in all cases: read-out: % control activity remaining
[1] = biological target: T1, ERBB4 (Homo sapiens, UniProt Q15303)
T1 construct: purchased Eurofins DiscoverX KINOMEscan

[2] = biological target: T2, ALK (Homo sapiens, UniProt Q9UM73)
T2 construct: purchased Eurofins DiscoverX KINOMEscan

[3] = biological target: T3, HIPK4 (Homo sapiens, UniProt Q8NE63)
T3 construct: purchased Eurofins DiscoverX KINOMEscan
T3 sequence (Q8NE63 1-616): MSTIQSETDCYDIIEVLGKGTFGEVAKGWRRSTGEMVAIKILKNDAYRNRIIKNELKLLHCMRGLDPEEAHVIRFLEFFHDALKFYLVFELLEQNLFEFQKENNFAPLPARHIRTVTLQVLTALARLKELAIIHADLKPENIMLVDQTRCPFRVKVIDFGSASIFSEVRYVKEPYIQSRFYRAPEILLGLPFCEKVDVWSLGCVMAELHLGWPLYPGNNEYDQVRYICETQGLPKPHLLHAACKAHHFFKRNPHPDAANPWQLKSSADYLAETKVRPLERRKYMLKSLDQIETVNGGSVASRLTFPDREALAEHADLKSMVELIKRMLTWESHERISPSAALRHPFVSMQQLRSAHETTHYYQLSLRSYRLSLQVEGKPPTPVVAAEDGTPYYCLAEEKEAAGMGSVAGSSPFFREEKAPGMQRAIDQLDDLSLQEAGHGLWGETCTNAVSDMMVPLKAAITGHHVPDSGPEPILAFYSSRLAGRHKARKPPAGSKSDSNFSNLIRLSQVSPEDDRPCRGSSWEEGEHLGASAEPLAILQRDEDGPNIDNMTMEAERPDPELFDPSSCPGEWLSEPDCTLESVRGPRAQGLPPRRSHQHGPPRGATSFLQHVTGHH

[4] = biological target: T4, GRK1 (Homo sapiens, UniProt Q15835)
T4 construct: purchased Eurofins DiscoverX KINOMEscan
T4 sequence (Q15835 1-563): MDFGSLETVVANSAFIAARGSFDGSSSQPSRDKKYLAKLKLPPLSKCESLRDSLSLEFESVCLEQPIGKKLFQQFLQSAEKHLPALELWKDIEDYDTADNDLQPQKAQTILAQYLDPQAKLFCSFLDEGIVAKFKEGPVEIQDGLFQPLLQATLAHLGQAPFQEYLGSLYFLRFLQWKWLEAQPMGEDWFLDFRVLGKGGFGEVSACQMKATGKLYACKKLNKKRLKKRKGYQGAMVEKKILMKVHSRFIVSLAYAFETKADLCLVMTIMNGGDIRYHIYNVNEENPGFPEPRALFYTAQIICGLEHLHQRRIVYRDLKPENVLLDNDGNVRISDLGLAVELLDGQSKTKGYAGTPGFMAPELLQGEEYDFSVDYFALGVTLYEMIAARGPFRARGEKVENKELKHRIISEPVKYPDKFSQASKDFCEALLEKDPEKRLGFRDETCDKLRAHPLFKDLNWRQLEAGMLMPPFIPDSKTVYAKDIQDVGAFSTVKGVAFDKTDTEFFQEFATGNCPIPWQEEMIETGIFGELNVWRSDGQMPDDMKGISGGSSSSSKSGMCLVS

[5] = biological target: T5, YES (Homo sapiens, UniProt P07947)
T5 construct: purchased Eurofins DiscoverX KINOMEscan

[6] = biological target: T6, KIT(L576P) (Homo sapiens, UniProt P10721, L576P)
T6 construct: purchased Eurofins DiscoverX KINOMEscan

[7] = biological target: T7, CLK3 (Homo sapiens, UniProt P49761)
T7 construct: purchased Eurofins DiscoverX KINOMEscan
T7 sequence (P49761 whole entry): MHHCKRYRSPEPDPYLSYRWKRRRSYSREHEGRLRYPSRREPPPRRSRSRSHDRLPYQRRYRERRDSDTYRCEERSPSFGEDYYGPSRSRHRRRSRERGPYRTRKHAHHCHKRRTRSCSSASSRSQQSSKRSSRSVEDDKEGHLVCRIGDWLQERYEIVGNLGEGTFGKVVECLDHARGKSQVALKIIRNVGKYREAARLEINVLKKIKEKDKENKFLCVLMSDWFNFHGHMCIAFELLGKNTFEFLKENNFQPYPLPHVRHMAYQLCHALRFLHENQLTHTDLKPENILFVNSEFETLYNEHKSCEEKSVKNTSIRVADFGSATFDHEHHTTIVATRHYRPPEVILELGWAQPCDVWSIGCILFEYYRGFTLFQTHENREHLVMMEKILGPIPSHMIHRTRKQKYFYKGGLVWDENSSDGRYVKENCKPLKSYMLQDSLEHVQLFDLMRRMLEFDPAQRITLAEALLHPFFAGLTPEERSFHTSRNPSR

[8] = biological target: T8, TRKA (Homo sapiens, UniProt P04629)
T8 construct: purchased Eurofins DiscoverX KINOMEscan
T8 sequence (P04629 33-796): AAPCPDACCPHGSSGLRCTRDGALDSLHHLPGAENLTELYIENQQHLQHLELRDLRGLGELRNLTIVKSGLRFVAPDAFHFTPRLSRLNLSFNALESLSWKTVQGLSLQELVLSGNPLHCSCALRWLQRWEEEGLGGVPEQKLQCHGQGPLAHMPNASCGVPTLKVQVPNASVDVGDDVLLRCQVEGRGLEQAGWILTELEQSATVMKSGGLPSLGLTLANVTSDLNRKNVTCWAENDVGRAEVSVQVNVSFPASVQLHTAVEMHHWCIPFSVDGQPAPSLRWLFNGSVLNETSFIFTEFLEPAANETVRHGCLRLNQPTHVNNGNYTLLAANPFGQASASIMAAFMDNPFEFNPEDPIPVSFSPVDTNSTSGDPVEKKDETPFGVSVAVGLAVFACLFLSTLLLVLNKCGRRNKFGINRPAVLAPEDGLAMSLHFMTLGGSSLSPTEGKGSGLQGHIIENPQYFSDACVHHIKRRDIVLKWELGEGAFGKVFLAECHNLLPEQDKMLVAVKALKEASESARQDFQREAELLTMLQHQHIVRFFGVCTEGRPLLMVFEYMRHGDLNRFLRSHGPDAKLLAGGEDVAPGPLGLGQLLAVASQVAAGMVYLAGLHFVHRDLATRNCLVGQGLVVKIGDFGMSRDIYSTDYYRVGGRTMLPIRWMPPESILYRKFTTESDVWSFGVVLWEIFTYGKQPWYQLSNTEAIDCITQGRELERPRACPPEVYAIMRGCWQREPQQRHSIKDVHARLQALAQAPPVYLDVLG

[9] = biological target: T9, ULK1 (Homo sapiens, UniProt O75385)
T9 construct: purchased Eurofins DiscoverX KINOMEscan
T9 sequence (O75385 1-1050): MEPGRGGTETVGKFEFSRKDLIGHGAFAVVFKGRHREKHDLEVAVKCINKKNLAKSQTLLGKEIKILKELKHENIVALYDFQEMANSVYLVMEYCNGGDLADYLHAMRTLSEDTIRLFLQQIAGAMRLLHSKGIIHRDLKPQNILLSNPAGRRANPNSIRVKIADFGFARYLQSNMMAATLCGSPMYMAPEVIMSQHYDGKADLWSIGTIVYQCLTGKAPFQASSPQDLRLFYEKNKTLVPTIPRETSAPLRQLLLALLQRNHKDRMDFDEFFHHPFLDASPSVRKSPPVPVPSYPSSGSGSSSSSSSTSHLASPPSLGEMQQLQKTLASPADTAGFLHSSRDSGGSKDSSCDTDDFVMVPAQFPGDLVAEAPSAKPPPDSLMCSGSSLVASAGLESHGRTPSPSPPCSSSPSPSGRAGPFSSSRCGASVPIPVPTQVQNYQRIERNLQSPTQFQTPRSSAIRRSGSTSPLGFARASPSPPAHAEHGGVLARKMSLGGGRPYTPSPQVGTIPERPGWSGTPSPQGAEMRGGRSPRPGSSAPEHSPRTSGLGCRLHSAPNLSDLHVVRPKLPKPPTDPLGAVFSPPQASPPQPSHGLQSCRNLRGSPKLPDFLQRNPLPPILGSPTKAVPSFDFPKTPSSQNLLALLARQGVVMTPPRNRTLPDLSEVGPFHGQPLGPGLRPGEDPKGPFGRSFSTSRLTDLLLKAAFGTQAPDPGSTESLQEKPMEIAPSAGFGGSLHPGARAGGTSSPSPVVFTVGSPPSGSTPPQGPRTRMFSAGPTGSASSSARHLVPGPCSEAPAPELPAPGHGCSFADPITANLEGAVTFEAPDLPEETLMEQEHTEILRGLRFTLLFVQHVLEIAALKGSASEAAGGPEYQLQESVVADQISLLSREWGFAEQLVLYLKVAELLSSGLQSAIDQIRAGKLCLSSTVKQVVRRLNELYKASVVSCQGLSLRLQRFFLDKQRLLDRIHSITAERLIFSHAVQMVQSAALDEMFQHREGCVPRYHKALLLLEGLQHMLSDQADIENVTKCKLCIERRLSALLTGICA

[10] = biological target: T10, ROCK2 (Homo sapiens, UniProt O75116)
T10 construct: purchased Eurofins DiscoverX KINOMEscan
T10 sequence (O75116 whole entry): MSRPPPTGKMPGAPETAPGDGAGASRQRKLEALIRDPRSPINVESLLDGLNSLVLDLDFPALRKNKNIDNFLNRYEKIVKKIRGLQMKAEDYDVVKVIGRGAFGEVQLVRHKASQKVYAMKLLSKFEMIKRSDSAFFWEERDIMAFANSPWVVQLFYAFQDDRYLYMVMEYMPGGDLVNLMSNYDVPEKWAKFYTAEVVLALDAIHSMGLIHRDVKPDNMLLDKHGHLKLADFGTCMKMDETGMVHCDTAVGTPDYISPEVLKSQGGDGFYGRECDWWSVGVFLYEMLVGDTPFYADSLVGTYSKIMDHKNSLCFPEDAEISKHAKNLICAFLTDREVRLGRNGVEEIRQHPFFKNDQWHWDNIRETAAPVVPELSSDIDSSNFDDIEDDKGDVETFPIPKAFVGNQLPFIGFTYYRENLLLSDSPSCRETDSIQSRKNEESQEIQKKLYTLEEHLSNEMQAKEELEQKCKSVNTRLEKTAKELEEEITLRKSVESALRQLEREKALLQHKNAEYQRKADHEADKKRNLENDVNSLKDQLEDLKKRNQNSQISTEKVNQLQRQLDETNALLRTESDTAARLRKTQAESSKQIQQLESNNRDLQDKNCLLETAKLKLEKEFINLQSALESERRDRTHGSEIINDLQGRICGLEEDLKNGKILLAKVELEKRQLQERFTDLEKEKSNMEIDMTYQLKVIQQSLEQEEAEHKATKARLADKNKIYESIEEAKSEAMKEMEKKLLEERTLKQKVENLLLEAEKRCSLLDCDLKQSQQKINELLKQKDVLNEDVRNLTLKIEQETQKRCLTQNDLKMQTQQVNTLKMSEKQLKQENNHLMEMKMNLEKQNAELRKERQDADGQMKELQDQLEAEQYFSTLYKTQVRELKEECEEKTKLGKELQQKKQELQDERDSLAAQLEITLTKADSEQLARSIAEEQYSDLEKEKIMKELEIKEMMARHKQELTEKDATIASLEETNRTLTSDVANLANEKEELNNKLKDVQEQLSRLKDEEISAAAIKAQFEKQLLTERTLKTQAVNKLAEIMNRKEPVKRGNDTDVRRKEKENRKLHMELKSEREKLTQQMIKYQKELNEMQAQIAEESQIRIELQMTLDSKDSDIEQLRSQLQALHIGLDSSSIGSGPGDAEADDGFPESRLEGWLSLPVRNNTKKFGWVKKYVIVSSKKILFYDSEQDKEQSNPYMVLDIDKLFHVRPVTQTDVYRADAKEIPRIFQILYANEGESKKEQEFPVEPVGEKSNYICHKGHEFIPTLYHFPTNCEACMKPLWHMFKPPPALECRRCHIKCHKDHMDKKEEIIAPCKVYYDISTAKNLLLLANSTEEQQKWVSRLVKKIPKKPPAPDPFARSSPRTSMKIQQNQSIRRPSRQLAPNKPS

[11] = biological target: T11, MEK2 (Homo sapiens, UniProt P36507)
T11 construct: purchased Eurofins DiscoverX KINOMEscan
T11 sequence (P36507 whole entry): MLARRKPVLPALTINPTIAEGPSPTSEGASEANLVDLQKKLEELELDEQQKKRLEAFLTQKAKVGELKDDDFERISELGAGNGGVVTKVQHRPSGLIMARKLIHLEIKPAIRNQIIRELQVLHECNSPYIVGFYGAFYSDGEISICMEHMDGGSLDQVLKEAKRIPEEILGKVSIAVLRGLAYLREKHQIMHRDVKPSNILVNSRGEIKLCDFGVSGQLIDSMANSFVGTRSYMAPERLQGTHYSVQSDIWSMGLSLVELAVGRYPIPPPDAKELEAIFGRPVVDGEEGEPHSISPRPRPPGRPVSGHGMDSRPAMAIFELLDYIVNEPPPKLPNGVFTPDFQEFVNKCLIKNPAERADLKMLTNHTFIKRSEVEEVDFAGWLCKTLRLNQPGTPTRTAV

T2 sequence (Q9UM73 19-1620): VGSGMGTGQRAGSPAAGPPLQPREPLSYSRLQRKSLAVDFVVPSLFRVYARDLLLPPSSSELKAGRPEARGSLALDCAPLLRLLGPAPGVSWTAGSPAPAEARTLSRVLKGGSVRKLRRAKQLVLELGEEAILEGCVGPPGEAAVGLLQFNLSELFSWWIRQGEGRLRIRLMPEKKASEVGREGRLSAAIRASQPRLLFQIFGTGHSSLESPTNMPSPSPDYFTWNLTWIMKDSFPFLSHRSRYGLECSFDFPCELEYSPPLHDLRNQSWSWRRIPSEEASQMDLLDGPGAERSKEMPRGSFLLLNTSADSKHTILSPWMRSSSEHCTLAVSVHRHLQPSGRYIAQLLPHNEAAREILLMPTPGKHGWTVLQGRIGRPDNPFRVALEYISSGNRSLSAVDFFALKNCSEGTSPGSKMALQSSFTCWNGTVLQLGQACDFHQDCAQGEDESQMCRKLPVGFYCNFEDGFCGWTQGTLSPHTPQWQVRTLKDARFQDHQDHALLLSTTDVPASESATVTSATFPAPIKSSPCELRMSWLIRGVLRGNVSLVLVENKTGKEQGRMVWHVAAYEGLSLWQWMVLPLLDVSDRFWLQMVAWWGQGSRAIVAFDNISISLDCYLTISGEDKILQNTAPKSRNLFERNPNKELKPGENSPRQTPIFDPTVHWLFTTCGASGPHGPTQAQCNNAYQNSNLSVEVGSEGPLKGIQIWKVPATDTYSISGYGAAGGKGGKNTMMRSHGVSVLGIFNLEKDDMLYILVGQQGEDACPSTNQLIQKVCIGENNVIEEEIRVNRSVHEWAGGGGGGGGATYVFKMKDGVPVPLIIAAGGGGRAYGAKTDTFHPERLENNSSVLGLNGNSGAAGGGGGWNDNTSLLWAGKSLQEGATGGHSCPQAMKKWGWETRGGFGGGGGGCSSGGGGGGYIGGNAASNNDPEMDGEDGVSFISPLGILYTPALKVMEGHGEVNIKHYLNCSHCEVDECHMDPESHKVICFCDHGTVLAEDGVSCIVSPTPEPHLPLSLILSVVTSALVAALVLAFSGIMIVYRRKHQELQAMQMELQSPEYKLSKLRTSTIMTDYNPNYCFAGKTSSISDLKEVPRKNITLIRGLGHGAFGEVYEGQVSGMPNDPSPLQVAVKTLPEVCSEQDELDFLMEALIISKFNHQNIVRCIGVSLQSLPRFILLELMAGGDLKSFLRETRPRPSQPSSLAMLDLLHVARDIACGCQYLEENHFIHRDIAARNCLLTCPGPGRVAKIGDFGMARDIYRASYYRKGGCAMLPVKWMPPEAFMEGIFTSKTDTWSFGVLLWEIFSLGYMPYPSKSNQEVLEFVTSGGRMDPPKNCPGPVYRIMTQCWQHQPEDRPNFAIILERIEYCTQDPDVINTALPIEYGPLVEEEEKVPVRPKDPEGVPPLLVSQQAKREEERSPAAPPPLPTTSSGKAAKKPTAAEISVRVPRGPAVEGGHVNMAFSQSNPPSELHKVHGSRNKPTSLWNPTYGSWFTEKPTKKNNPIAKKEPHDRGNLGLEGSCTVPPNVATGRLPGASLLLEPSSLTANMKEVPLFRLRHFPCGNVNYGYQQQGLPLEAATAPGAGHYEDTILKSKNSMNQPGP

SMILES	remaining binding at 1 µM [1]	remaining binding at 1 µM [2]	remaining binding at 1 µM [3]	remaining binding at 1 µM [4]	remaining binding at 1 µM [5]	remaining binding at 1 µM [6]	remaining binding at 1 µM [7]	remaining binding at 1 µM [8]	remaining binding at 1 µM [9]	remaining binding at 1 µM [10]	remaining binding at 1 µM [11]
CN1CCC(CNc2cc(Cl)nn3c(-c4cc5nc(Nc6ccccc6)[nH]c5cc4F)cnc23)CC1 [compound 31, 6-Chloro-3-(6-fluoro-2-(phenylamino)-1H-benzo[d]imidazol-5-yl)-N-((1-methylpiperidin-4-yl)methyl)imidazo[1,2-b]pyridazin-8-amine]	100%	70%	71%	82%	96%	61%	100%	96%	79%	100%	80%
O=C(CN1CCOCC1)N[C@H]1CC[C@H](Nc2cc(Cl)nn3c(-c4ccc5[nH]ncc5c4)cnc23)CC1 [compound 26]	100%	94%	5.1%	80%	93%	0%	52%	19%	97%	21%	89%
Clc1cc(NCC2CC2)c2ncc(-c3ccc4[nH]ncc4c3)n2n1 [compound 2, 6-Chloro-N-(cyclopropylmethyl)-3-(1H-indazol-5-yl)imidazo[1,2-b]pyridazin-8-amine]	99%	92%	8.6%	100%	91%	1.2%	70%	89%	78%	31%	92%
